This note sets out measurements from ChEMBL document CHEMBL5726238, “Phenyl and pyridinyl substituted piperidines and piperazines as inhibitors of IDH1 mutants and their use in treating cancer” (2017).

The target in this assay is Isocitrate dehydrogenase [NADP] cytoplasmic (Homo sapiens, UniProt O75874, R132H). In words: Inhibition Assay: Assays were conducted in a volume of 76 μl assay buffer (150 mM NaCl, 10 mM MgCl2, 20 mM Tris pH 7.5, 0.03% bovine serum albumin) as follows in a standard 384-well plate: To 25 ul of substrate mix (8 uM NADPH, 2 mM aKG), 1 μl of test compound was added in DMSO. […] The reaction was incubated for 50 minutes at room temperature, then 25 μl of detection mix (30 μM resazurin, […]) was added and the mixture further incubated for 5 minutes at room temperature.
Chain of Isocitrate dehydrogenase [NADP] cytoplasmic (O75874 2-414 R132H limits assumed): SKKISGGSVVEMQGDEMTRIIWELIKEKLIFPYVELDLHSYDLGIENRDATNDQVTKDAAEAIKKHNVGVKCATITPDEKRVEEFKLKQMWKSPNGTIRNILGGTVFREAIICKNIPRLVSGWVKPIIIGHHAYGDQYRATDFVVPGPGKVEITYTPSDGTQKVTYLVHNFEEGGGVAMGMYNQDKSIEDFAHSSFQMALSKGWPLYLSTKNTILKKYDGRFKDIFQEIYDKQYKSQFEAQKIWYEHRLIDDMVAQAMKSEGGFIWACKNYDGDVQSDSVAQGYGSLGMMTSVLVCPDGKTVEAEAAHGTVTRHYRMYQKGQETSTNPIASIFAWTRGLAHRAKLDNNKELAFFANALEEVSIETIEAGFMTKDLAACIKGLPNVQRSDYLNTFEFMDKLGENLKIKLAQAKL
As to `CC(C)[C@@H]1CN(c2nc(C3CC3)c3c(c2C#N)CC(C)(C)OC3)CCN1C(=O)CCC(=O)OCCO`, the IC50 was below 0.5 µM. In the case of `CC(C)c1nc(N2CCN(C(=O)Cc3cccs3)CC2)c(C#N)c2c1COC(C)(C)C2`, the 50% inhibitory concentration (IC50) was 1 to 10 µM. With `COCCC(=O)N1CCN(c2nc(C3CC3)c3c(c2C#N)CN(S(C)(=O)=O)CC3)C[C@H]1C1CC1`, the IC50 was below 0.5 µM. On to `C=CC(=O)N1CCc2c(C3CC3)nc(N3CCN(C(=O)C4CC4)[C@H](C4CC4)C3)c(C#N)c2C1`, for which the IC50 is below 0.5 µM. For `C#CC(=O)N1CCc2c(C#N)c(N3CCN(C(=O)CCOC)[C@H](C4CC4)C3)nc(C3CC3)c2C1`, the IC50 was below 0.5 µM.

The term IC50 denotes the concentration that gives 50% inhibition.
